Test results as given in US9149038B2, “4-amino-6-(heterocyclic)picolinates and 6-amino-2-(heterocyclic)pyrimidine-4-carboxylates and their use as herbicides” (Dow AgroSciences LLC, priority 2013, dated 2015).
Where two headings read alike, the source gives them in different places.

What was measured:
[1] = tested on: Key Broadleaf Weed and Crop Species; assay: Post-Emergent Test II: postemergent herbicidal activity, visual rating after 14 d (Table 7); assay type: in vivo; details: post-emergence, 336 h; for pest or weed control at 35 g/ha: 35 g ai/ha; for pest or weed control at 70 g/ha: 70 g ai/ha; for pest or weed control at 140 g/ha: 140 g ai/ha
Summary of the method: (§1)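 Plants were raised in a greenhouse for 7-21 d and treated once at the first or second true leaf stage. Compounds, dissolved in 97:3 acetone:DMSO then diluted into an aqueous acetone/isopropanol/crop oil/Triton X-155 carrier, were applied by overhead track sprayer at 187 L/ha. After 14 d with subirrigation, injury was scored visually from 0 (none) to 100 (complete kill).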

[2] = tested on: Key Grass and Sedge Weeds as well as Grass Crops; assay: Post-Emergent Test II: postemergent herbicidal activity, visual rating after 14 d (Table 8); assay type: in vivo; details: post-emergence, 336 h; for pest or weed control at 35 g/ha: 35 g ai/ha; for pest or weed control at 70 g/ha: 70 g ai/ha; for pest or weed control at 140 g/ha: 140 g ai/ha
Summary of the method: as §1

[3] = lambsquarters (Chenopodium album), read-out: Visual Growth Reduction (%) 14 Days After Application CHEAL
[4] = oilseed rape, canola (Brassica napus), read-out: Visual Growth Reduction (%) 14 Days After Application BRSNN
[5] = redroot pigweed (Amaranthus retroflexus), read-out: Visual Growth Reduction (%) 14 Days After Application AMARE
[6] = sunflower (Helianthus annuus), read-out: Visual Growth Reduction (%) 14 Days After Application HELAN
[7] = velvetleaf (Abutilon theophrasti), read-out: Visual Growth Reduction (%) 14 Days After Application ABUTH
[8] = wild poinsettia (Euphorbia heterophylla), read-out: Visual Growth Reduction (%) 14 Days After Application EPHHL
[9] = barnyardgrass (Echinochloa crus-galli), read-out: Visual Growth Reduction (%) 14 Days After Application ECHCG
[10] = giant foxtail (Setaria faberi), read-out: Visual Growth Reduction (%) 14 Days After Application SETFA
[11] = maize, corn (Zea mays), read-out: Visual Growth Reduction (%) 14 Days After Application ZEAMX
[12] = rice (Oryza sativa), read-out: Visual Growth Reduction (%) 14 Days After Application ORYSA
[13] = wheat, spring (Triticum aestivum), read-out: Visual Growth Reduction (%) 14 Days After Application TRZAS
[14] = yellow nutsedge (Cyperus esculentus), read-out: Visual Growth Reduction (%) 14 Days After Application CYPES

SMILES: Cc1c(-c2ccc3c(c2)OC(F)(F)O3)nc(C(=O)O)c(Cl)c1N [Compound 52]
- pest or weed control at 35 g/ha [1, 3]: 0 to 29%
- pest or weed control at 70 g/ha [1, 3]: 0 to 29%
- pest or weed control at 140 g/ha [1, 3]: 0 to 29%
- pest or weed control at 35 g/ha [1, 4]: 0 to 29%
- pest or weed control at 70 g/ha [1, 4]: 0 to 29%
- pest or weed control at 140 g/ha [1, 4]: 0 to 29%
- pest or weed control at 35 g/ha [1, 5]: 0 to 29%
- pest or weed control at 70 g/ha [1, 5]: 0 to 29%
- pest or weed control at 140 g/ha [1, 5]: 0 to 29%
- pest or weed control at 35 g/ha [1, 6]: 85 to 94%
- pest or weed control at 70 g/ha [1, 6]: 95 to 100%
- pest or weed control at 140 g/ha [1, 6]: 95 to 100%
- pest or weed control at 35 g/ha [1, 7]: 0 to 29%
- pest or weed control at 70 g/ha [1, 7]: 0 to 29%
- pest or weed control at 140 g/ha [1, 7]: 0 to 29%
- pest or weed control at 35 g/ha [1, 8]: 0 to 29%
- pest or weed control at 70 g/ha [1, 8]: 0 to 29%
- pest or weed control at 140 g/ha [1, 8]: 0 to 29%
- pest or weed control at 35 g/ha [2, 9]: 45 to 59%
- pest or weed control at 70 g/ha [2, 9]: 60 to 74%
- pest or weed control at 140 g/ha [2, 9]: 75 to 84%
- pest or weed control at 35 g/ha [2, 10]: 0 to 29%
- pest or weed control at 70 g/ha [2, 10]: 0 to 29%
- pest or weed control at 140 g/ha [2, 10]: 45 to 59%
- pest or weed control at 35 g/ha [2, 11]: 60 to 74%
- pest or weed control at 70 g/ha [2, 11]: 60 to 74%
- pest or weed control at 140 g/ha [2, 11]: 60 to 74%
- pest or weed control at 35 g/ha [2, 12]: 0 to 29%
- pest or weed control at 70 g/ha [2, 12]: 0 to 29%
- pest or weed control at 140 g/ha [2, 12]: 0 to 29%
- pest or weed control at 35 g/ha [2, 13]: 0 to 29%
- pest or weed control at 70 g/ha [2, 13]: 30 to 44%
- pest or weed control at 140 g/ha [2, 13]: 30 to 44%
- pest or weed control at 35 g/ha [2, 14]: 0 to 29%
- pest or weed control at 70 g/ha [2, 14]: 0 to 29%
- pest or weed control at 140 g/ha [2, 14]: 0 to 29%
